Numbered stars: 1 amine (or outer) side, 2 acyl side, 3 side chain; on linkers, the order of the positions; unused ones are H or OH. Bridge positions count the residues as written; N and C are the ends. Square brackets hold non-standard residues; d marks the D form. Side chains are listed from the residue outwards. Peptide text beside a SMILES is read from it. * marks the point of attachment. C20 diacid = O=C(O)CCCCCCCCCCCCCCCCCCC(=O)*; C18 diacid = O=C(O)CCCCCCCCCCCCCCCCC(=O)*; γGlu = O=C(O)[C@H](CCC(=O)[*:2])N[*:1]; αMeF = C[C@](N)(Cc1ccccc1)C(=O)O; Dab = NCC[C@H](N)C(=O)O; Aib = CC(C)(N)C(=O)O

The source of these data is patent US20240067693A1, “POLYPEPTIDES AND USES THEREOF” (MEDIMMUNE LIMITED, priority 2020, published 2024).

Experiment [1] has as its target T1, human amylin receptor (calcitonin receptor co-expressed with receptor activity modifying protein, RAMP3) (hAMYR3) (Homo sapiens, UniProt O60896+P30988).
T1 construct: expressed in transfected cells
T1 sequence (P30988 25-474): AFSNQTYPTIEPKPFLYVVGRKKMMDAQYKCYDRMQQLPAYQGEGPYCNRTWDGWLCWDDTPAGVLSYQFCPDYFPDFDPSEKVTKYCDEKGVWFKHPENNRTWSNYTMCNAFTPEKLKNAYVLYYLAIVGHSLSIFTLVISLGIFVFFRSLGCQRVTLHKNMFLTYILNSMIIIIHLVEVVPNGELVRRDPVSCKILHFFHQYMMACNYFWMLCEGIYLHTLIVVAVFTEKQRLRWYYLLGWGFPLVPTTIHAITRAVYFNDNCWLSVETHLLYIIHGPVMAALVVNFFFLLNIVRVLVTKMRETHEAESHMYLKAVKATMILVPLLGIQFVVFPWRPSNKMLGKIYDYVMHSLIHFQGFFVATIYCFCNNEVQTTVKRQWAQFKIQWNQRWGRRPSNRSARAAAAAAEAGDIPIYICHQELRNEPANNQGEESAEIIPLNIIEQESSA
T1 sequence (O60896 24-148 partner): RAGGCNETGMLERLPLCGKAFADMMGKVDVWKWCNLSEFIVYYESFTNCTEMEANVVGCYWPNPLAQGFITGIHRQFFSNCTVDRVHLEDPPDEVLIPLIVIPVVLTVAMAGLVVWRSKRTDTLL
Kind of experiment: cAMP production in 1321N1 cells with stable recombinant expression of human amylin receptor (hAMYR3). The experiment is classed as cell-based. Particulars: for Ratio (selectivity hAMYR vs hCTR, ratio of EC50 values at the two receptors): EC50 hCTR / EC50 hAMYR3; for EC50: cAMP, 1321N1 cells, assay buffer with 0.1% BSA, read-out: EC50 (pM) hAMYR3. The procedure, abridged:
(§1)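 EC50 values come from 4-parameter logistic fits of HTRF cAMP signal, normalised to maximal calcitonin or amylin effect. Peptides were tested in duplicate for 30 min at RT in IBMX-containing (0.5 mM) BSA/HEPES buffer pH 7.4 on stable 1321N1 (human CTR, AMYR3) or HEK (rat CTR, AMYR3) lines.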

Experiment [2] addresses T2, human calcitonin receptor (hCTR) (Homo sapiens, UniProt P30988).
T2 construct: expressed in transfected cells
T2 sequence (P30988 25-474): T1 sequence (P30988 25-474)
Put plainly: cAMP production in 1321N1 cells with stable recombinant expression of human calcitonin receptor (hCTR). Format: cell-based. The following applies: cAMP, 1321N1 cells, assay buffer with 0.1% BSA; read-out: EC50 (pM) hCTR. The procedure, abridged:
as §1

`CC[C@H](C)[C@H](NC(=O)[C@@H]1CCCN1C(=O)CNC(=O)[C@H](Cc1ccccc1)NC(=O)[C@H](CC(N)=O)NC(=O)[C@H](CC(N)=O)NC(=O)[C@H](CO)NC(=O)[C@H](CO)NC(=O)[C@H](Cc1c[nH]cn1)NC(=O)C(C)(C)NC(=O)[C@H](CC(C)C)NC(=O)[C@H](Cc1ccccc1)NC(=O)[C@H](CC(N)=O)NC(=O)[C@H](C)NC(=O)[C@H](CC(C)C)NC(=O)[C@H](CCCNC(=N)N)NC(=O)[C@H](CCC(N)=O)NC(=O)[C@@H](NC(=O)[C@H](C)NC(=O)[C@@H]1CSSC[C@H](NC(=O)[C@H](CCCCN)NC(=O)[C@@H](N)CCCCNC(=O)CC[C@H](NC(=O)CCCCCCCCCCCCCCCCC(=O)O)C(=O)O)C(=O)N[C@@H](CC(N)=O)C(=O)N[C@@H]([C@@H](C)O)C(=O)N[C@@H](C)C(=O)N[C@@H]([C@@H](C)O)C(=O)N1)[C@@H](C)O)C(=O)N[C@@H](CC(C)C)C(=O)N1CCC[C@H]1C(=O)N1CCC[C@H]1C(=O)N[C@H](C(=O)N[C@@H](CC(N)=O)C(=O)N[C@H](C(=O)NCC(=O)N[C@@H](Cc1c[nH]cn1)C(=O)N[C@@H](CC(N)=O)C(=O)N[C@H](C(=O)N[C@@H](Cc1ccc(O)cc1)C(N)=O)[C@@H](C)O)C(C)C)[C@@H](C)O` [Peptide 145] (H-K([γGlu-C18 diacid])KCNTATCATQRLANFL[Aib]HSSNNFGPILPPTNVGHNTY-NH2; disulfide 3-8; N-terminus assumed): the “Ratio (selectivity hAMYR vs hCTR, ratio of EC50 values at the two receptors)” value in experiment [1] worked out at 4.5. For the same compound, the EC50 in experiment [1] is 417 pM; in experiment [2] it was 1880 pM.

Consider `CC[C@H](C)[C@H](NC(=O)[C@H](C)NC(=O)[C@@H]1CCCN1C(=O)[C@H](Cc1ccccc1)NC(=O)[C@H](CC(N)=O)NC(=O)C(C)(C)NC(=O)[C@H](CO)NC(=O)[C@H](CO)NC(=O)[C@H](Cc1c[nH]cn1)NC(=O)[C@@H](NC(=O)[C@H](CC(C)C)NC(=O)[C@H](Cc1ccccc1)NC(=O)[C@H](CC(N)=O)NC(=O)[C@H](C)NC(=O)[C@H](CC(C)C)NC(=O)[C@H](CCCNC(=N)N)NC(=O)[C@H](CCC(N)=O)NC(=O)[C@@H](NC(=O)[C@H](C)NC(=O)[C@@H]1CSSC[C@H](NC(=O)[C@@H](N)CCCCNC(=O)CC[C@H](NC(=O)CC[C@H](NC(=O)CCCCCCCCCCCCCCCCCCC(=O)O)C(=O)O)C(=O)O)C(=O)N[C@@H](CC(N)=O)C(=O)N[C@@H]([C@@H](C)O)C(=O)N[C@@H](C)C(=O)N[C@@H]([C@@H](C)O)C(=O)N1)[C@@H](C)O)C(C)C)C(=O)N[C@@H](CC(C)C)C(=O)N[C@@H](CO)C(=O)N1CCC[C@H]1C(=O)N[C@H](C(=O)N[C@@H](CC(N)=O)C(=O)N[C@H](C(=O)NCC(=O)N[C@@H](CO)C(=O)N[C@@H](CCN)C(=O)N[C@H](C(=O)N[C@@H](Cc1ccc(O)cc1)C(N)=O)[C@@H](C)O)C(C)C)[C@@H](C)O` [Peptide 125, K(γE-γE-C20diacid)[CNTATC]ATQRLANFLVHSS(Aib)NFPAILSPTNVGS(Dab)TY-amide] (H-K([γGlu-γGlu-C20 diacid])CNTATCATQRLANFLVHSS[Aib]NFPAILSPTNVGS[Dab]TY-NH2; disulfide 2-7; N-terminus assumed), for which the “Ratio (selectivity hAMYR vs hCTR, ratio of EC50 values at the two receptors)” value in experiment [1] came to 8. Besides, in experiment [2], the EC50 was 10200 pM.

Take `CC[C@H](C)[C@H](NC(=O)[C@@H]1CCCN1C(=O)CNC(=O)[C@](C)(Cc1ccccc1)NC(=O)[C@H](CC(N)=O)NC(=O)[C@H](CC(N)=O)NC(=O)[C@H](CO)NC(=O)[C@H](CO)NC(=O)[C@H](Cc1c[nH]cn1)NC(=O)[C@@H](NC(=O)[C@H](CC(C)C)NC(=O)[C@H](Cc1ccccc1)NC(=O)[C@H](CC(N)=O)NC(=O)[C@H](C)NC(=O)[C@H](CC(C)C)NC(=O)[C@H](CCCNC(=N)N)NC(=O)[C@H](CCC(N)=O)NC(=O)[C@@H](NC(=O)[C@H](C)NC(=O)[C@@H]1CSSC[C@H](NC(=O)[C@@H](N)CCCCNC(=O)CC[C@H](NC(=O)CC[C@H](NC(=O)CCCCCCCCCCCCCCCCC(=O)O)C(=O)O)C(=O)O)C(=O)N[C@@H](CC(N)=O)C(=O)N[C@@H]([C@@H](C)O)C(=O)N[C@@H](C)C(=O)N[C@@H]([C@@H](C)O)C(=O)N1)[C@@H](C)O)C(C)C)C(=O)N[C@@H](CC(C)C)C(=O)N1CCC[C@H]1C(=O)N1CCC[C@H]1C(=O)N[C@H](C(=O)N[C@@H](CCC(=O)O)C(=O)N[C@H](C(=O)NCC(=O)N[C@@H](CO)C(=O)N[C@@H](CC(N)=O)C(=O)N[C@H](C(=O)N[C@@H](Cc1ccc(O)cc1)C(N)=O)[C@@H](C)O)C(C)C)[C@@H](C)O` [Peptide 23, K(γE-γE-C18diacid)[CNTATC]ATQRLANFLVHSSNN(αMePhe)GPILPPTEVGSNTY-amide] (H-K([γGlu-γGlu-C18 diacid])CNTATCATQRLANFLVHSSNN[αMeF]GPILPPTEVGSNTY-NH2; disulfide 2-7): in experiment [1], the “Ratio (selectivity hAMYR vs hCTR, ratio of EC50 values at the two receptors)” value was found to be 2 and the EC50 was found to be 238 pM. Also, the concentration giving a half-maximal response (EC50) in experiment [2] came to 589 pM.

As for `CC[C@H](C)[C@H](NC(=O)[C@@H]1CCCN1C(=O)CNC(=O)[C@H](Cc1ccccc1)NC(=O)[C@H](CC(N)=O)NC(=O)[C@H](CC(N)=O)NC(=O)[C@H](CO)NC(=O)[C@H](CO)NC(=O)[C@H](Cc1c[nH]cn1)NC(=O)C(C)(C)NC(=O)[C@H](CC(C)C)NC(=O)[C@H](Cc1ccccc1)NC(=O)[C@H](CC(N)=O)NC(=O)[C@H](C)NC(=O)[C@H](CC(C)C)NC(=O)[C@H](CCCNC(=N)N)NC(=O)[C@H](CCC(N)=O)NC(=O)[C@@H](NC(=O)[C@H](C)NC(=O)[C@@H]1CSSC[C@H](NC(=O)[C@H](CCCCN)NC(=O)[C@@H](N)CCCCNC(=O)CC[C@H](NC(=O)CCCCCCCCCCCCCCCCC(=O)O)C(=O)O)C(=O)N[C@@H](CC(N)=O)C(=O)N[C@@H]([C@@H](C)O)C(=O)N[C@@H](C)C(=O)N[C@@H]([C@@H](C)O)C(=O)N1)[C@@H](C)O)C(=O)N[C@@H](CC(C)C)C(=O)N1CCC[C@H]1C(=O)N1CCC[C@H]1C(=O)N[C@H](C(=O)N[C@@H](CC(N)=O)C(=O)N[C@H](C(=O)NCC(=O)N1CCC[C@H]1C(=O)N[C@@H](CC(N)=O)C(=O)N[C@H](C(=O)N[C@@H](Cc1ccc(O)cc1)C(N)=O)[C@@H](C)O)C(C)C)[C@@H](C)O` [Peptide 148] (H-K([γGlu-C18 diacid])KCNTATCATQRLANFL[Aib]HSSNNFGPILPPTNVGPNTY-NH2; disulfide 3-8), in experiment [1], the “Ratio (selectivity hAMYR vs hCTR, ratio of EC50 values at the two receptors)” value is listed as 3.8 and the EC50 is 191 pM. Besides, the EC50 in experiment [2] stood at 728 pM.

As for `CC[C@H](C)[C@H](NC(=O)[C@@H]1CCCN1C(=O)CNC(=O)[C@H](Cc1ccccc1)NC(=O)[C@H](CC(N)=O)NC(=O)[C@H](CC(N)=O)NC(=O)[C@H](CO)NC(=O)[C@H](CO)NC(=O)[C@H](Cc1c[nH]cn1)NC(=O)C(C)(C)NC(=O)[C@H](CC(C)C)NC(=O)[C@H](Cc1ccccc1)NC(=O)[C@H](CCC(=O)O)NC(=O)[C@H](C)NC(=O)[C@H](CC(C)C)NC(=O)[C@H](CCCNC(=N)N)NC(=O)[C@H](CCC(N)=O)NC(=O)[C@@H](NC(=O)[C@H](C)NC(=O)[C@@H]1CSSC[C@H](NC(=O)[C@H](CCCCN)NC(=O)[C@@H](N)CCCCNC(=O)CC[C@H](NC(=O)CCCCCCCCCCCCCCCCC(=O)O)C(=O)O)C(=O)N[C@@H](CC(N)=O)C(=O)N[C@@H]([C@@H](C)O)C(=O)N[C@@H](C)C(=O)N[C@@H]([C@@H](C)O)C(=O)N1)[C@@H](C)O)C(=O)N[C@@H](CC(C)C)C(=O)N1CCC[C@H]1C(=O)N1CCC[C@H]1C(=O)N[C@H](C(=O)N[C@@H](CC(N)=O)C(=O)N[C@H](C(=O)NCC(=O)N[C@@H](CO)C(=O)N[C@@H](CC(N)=O)C(=O)N[C@H](C(=O)N[C@@H](Cc1ccc(O)cc1)C(N)=O)[C@@H](C)O)C(C)C)[C@@H](C)O` [Peptide 128] (H-K([γGlu-C18 diacid])KCNTATCATQRLAEFL[Aib]HSSNNFGPILPPTNVGSNTY-NH2; disulfide 3-8; N-terminus assumed), in experiment [1], the “Ratio (selectivity hAMYR vs hCTR, ratio of EC50 values at the two receptors)” value amounted to 4.8 and the EC50 stood at 118 pM. The EC50 in experiment [2] worked out at 568 pM.
